Several values for one entry are separate records, joined by “and”; a condition that tells them apart may be missing. Identical values can stand only once. Entries after “also recorded” stand apart in the source; their conditions may differ.

The test system of data set [1] is metabotropic glutamate receptor. The data set is described as follows: Behavioral analysis after ICV infusion (quisqualate excitotoxicity). The following applies: for effective dose: ICV, pilot testing; for death, cases: 120 min; for convulsant behavior, compound alone: no quisqualate. The data set is classed as in vivo, male F344 rats. On the procedure: The animals used in this experiment were male F344 rats (Charles River Breeding Laboratories). The animals were housed individually, exposed to a 12-hour light-dark cycle, and allowed free access to food and water. The animals weighed approximately 250 g at the beginning of each experiment and were weighed daily. In addition, the animals were habituated to handling before each experiment.
Before administering various compounds, the animals were anesthetized with sodium pentobarbital (50 mg/kg, i.p.) and positioned in a sterotaxic instrument. A 26 gauge cannula was inserted into the cerebral ventricle at the following co-ordinates: 1.0 mm posterior to bregma, 1.5 mm lateral to the midline, and 4.0 mm below the dorsal surface of the neocortex. Cannulas were capped and fixed in place with dental cement. One week after cannulation, 10 μl of each of the treatment drugs was infused, ICV (i.e. into the ventricals of the brain), via a micropump at a rate of 10 μl/min. For this procedure, the animals were lightly restrained and unanesthetized. Following administration of the compound, the infusion cannula remained in position for one minute, after which the permanent in situ cannula was capped.
The compounds administered were obtained from a commercial supplier (Sigma Chemical Co., St. Louis, Mo.) and dissolved in saline prior to injection. […]
Pilot studies identified several specific behavioral measures that could be used to indicate excessive activation of the metabotropic receptor (see Table 3). […] The experiments that follow were based on an analysis of these behaviors over a two hour period after administration of the compounds of the invention. Behavioral observation was carried out by two trained observers, who worked independently of one another and who were blind to the experimental groups. […] Frequency and duration means were computed by subtracting pre-infusion means from post-infusion means.
Some of the experiments that were performed first were carried out to determine the amount of quisqualate required to produce behavioral and histological changes and the amount of lysosphingolipids that could effectively prevent or reverse these effects. Table 3 outlines the behavioral responses of rats to various doses of quisqualate (injected as described above) and the associated histological changes. The behaviors are listed as they occur chronologically. The limb clasp and reflex tests indicate the degree of decortication. A limb clasp or placement score of zero is normal, and a score of 3 is severely abnormal.
The data shown in Table 4 represents the observations of pilot studies aimed at determining the effect (on behavior) of lysosphingolipids infused directly into the lateral ventricles of the brain 30 minutes prior to infusion of quisqualate.
The experiment began one week after ICV cannulation. Animals (n=6 per group) were randomly allocated to one of 8 treatment groups: (1) saline, (2) quisqualate at 225 nmoles, (3) psychosine at 125 nmoles, (4) lysosphingomyelin at 125 nmoles, (5) lysosphingomyelin at 150 nmoles, (6) quisqualate at 225 nmoles and psychosine at 125 nmoles, (7) quisqualate at 225 nmoles and lysosphingomyelin at 125 nmoles, and (8) quisqualate at 225 nmoles and lysosphingomyelin at 150 nmoles. Following the baseline observation period, animals received the first of two ICV infusions (all infusions were of a 10 μl volume that was administered over a 1 minute period). For the first five groups listed above, this consisted of saline (10 μl/minute), for the following 3 groups the infusions were psychosine at 125 nmoles, lysosphingomyelin at 125 nmoles, or Iysosphingomyelin at 150 nmoles, respectively. Thirty minutes later, all animals received the second infusion which, for the first five groups listed above, consisted of saline, quisqualate at 225 nmoles, psychosine at 125 nmoles, lysosphingomyelin at 125 mrnoles, and lysosphingomyelin at 150 nmoles respectively. […]

A short description of data set [2]: Lysosphingolipid loading of isolated neuronal plasma membrane. Format: in vitro ADME, chick. To be noted: Plasma Membrane Suspension, 10 μmolar exposure. An excerpt:
Total lipids were removed from the neuron samples by repeated extraction with chloroforn:methanol (2:1, vol:vol). […] The recovered lysosphingolipids were stably tagged with NBDZF by the rapid procedure of Nozowa et al. (supra). The fluorescence tagged neuronal lysosphingolipids were separated in parallel with reference standards NBDZF-Sph, NBDZF-Psy, and NBDZF-Lsm on high performance silica gel thin layer chromatography plates with acetonitrile:H2 O (10:0.5, vol:vol). The highly fluorescent, well separated bands were scraped from the plate. The fluorescence tagged lysosphingolipids are eluted from the scraped silica gel with methanol:1 N HCl (1:0.02, vol:vol). The fluorescence tagged lysosphingolipid eluates were quantitated against reference standards by fluorescence measurement in a Perkin-Elmer LS-5 Fluorescence Spectrometer.
Physiologically active phospholipase C is present on the endofacial portion of the plasma membrane. A procedure for examining its activity in an intact membrane is provided. […] One hundred Petri dishes of cultured cortical neurons were incubated overnight with 50 μCi [^3 H]myo-inositol per mL of culture medium. […] The collected neurons were homogenized in 5 mL 0.32 M sucrose and centrifuged at 1000×g for 15 minutes. The supernatant was layered on top of 2 ml 1.2 M sucrose and centrifuged at 300,000×g for 20 minutes. The sedimented pellet was resuspended by sonication for 10 seconds in 50 mM Tris buffer (pH 7.4), containing 0.3 μM CaCl2, 1 mM MgCl2, and 0.01% ascorbic acid.
The suspended plasma membrane preparation was apportioned into 250 μl samples, each providing approximately 100 μg membrane protein. Sphingosine, psychosine, and lysosphingomyelin were added to each plasma membrane sample. […] Samples were analyzed for lysosphingolipid loading (i.e., membrane lysosphingolipid content following exposure to exogenous sphingolipid) by fluorescence tagging. […] Values are reported in pmoles lysosphingolipid/mg plasma membrane protein.

[3] abbreviates: Quisqualate 225 nmoles ICV, rat.
[4] abbreviates: Quisqualate 250 nmoles ICV, rat.

Regarding `N[C@@H](Cn1oc(=O)[nH]c1=O)C(=O)O` [Quisqualate, quisqualate], the effective dose in data set [1] (rat) was 225 nmol. For the same compound, the BEHAVIOR entry in data set [1] (Quisqualate 100 nmoles ICV, rat) is “teeth chatter; also recorded: mild scratching; also recorded: hind leg weakness 60 minutes”; in data set [1] (Quisqualate 150 nmoles ICV, rat) it was “teeth chatter; also recorded: localized twitches; also recorded: mild hyperactivity walking in circles; also recorded: hind leg weakness for 60 minutes”; in data set [1] (Quisqualate 150 nmoles ICV, rat, listed as quisqualate), “increase in activity and teeth chattering”; in data set [1] (Quisqualate 200 nmoles ICV, rat), “teeth chatter; also recorded: occasional mild convulsions; also recorded: hyperactivity - circle walking; also recorded: episodic akinesia/tonic immobility; also recorded: hind leg weakness”; in data set [1] (setting [3]), “teeth chatter; also recorded: hind leg paralysis; also recorded: hyperactivity/walk in circles; also recorded: full body convulsions - moderate; also recorded: localized spasms twitching/jerking; also recorded: episodic akinesia/tonic immobility; also recorded: respiratory distress; also recorded: foaming at mouth”; in data set [1] (Quisqualate 225 nmoles ICV, rat, listed as quisqualate), “moderate convulsions”. Moreover, the BEHAVIOR entry is “vocalization; also recorded: teeth chattering; also recorded: scratching; also recorded: localized spasms jerking/twitching; also recorded: full body convulsions-severe/repeated; also recorded: foaming at mouth; also recorded: respiratory distress” in data set [1] (setting [4]); “severe convulsions and death” in data set [1] (Quisqualate 250 nmoles ICV, rat, listed as quisqualate); “severe repeated full body convulsions; also recorded: severe scratching; also recorded: severe teeth chattering; also recorded: foaming at mouth” in data set [1] (Quisqualate 1 μmoles ICV, rat); “vocalization” in data set [1] (Quisqualate 500 μmoles ICV, rat). Also, the “placement and clasp reflex score” value in data set [1] (Quisqualate 100 nmoles ICV, score zero is normal, 3 is severely abnormal) is reported as 0; in data set [1] (Quisqualate 150 nmoles ICV, score zero is normal, 3 is severely abnormal), 0; in data set [1] (Quisqualate 225 nmoles ICV, score zero is normal, 3 is severely abnormal) it was 1-2; in data set [1] (Quisqualate 250 nmoles ICV, score zero is normal, 3 is severely abnormal) it was 3. Further, the “limb clasp and placement reflex score” value in data set [1] (Quisqualate 200 nmoles ICV, score zero is normal, 3 is severely abnormal) is recorded as 0. Further, the “death, cases” value in data set [1] (setting [3]) worked out at 60%; in data set [1] (setting [4]), 75%; in data set [1] (Quisqualate 1 μmoles ICV, rat), 100%. For the same compound, the time to death in data set [1] (Quisqualate 1 μmoles ICV, rat) fell in the range of 5 to 15 min. In data set [1] (quisqualate alone 225 nmoles ICV), the “duration of teeth chattering, akinesia and mobilization versus lysosphingolipid-alone groups and quisqualate + lysosphingomyelin 150 nmoles” value is recorded as “significantly (p<.01) more time engaged in these behaviors”. For the same compound, the “number of convulsions/spasms compared to all other groups” value in data set [1] (quisqualate alone at 225 nmoles ICV, 2 hours observation, n=6) is “significantly (p.<01) more convulsions/spasms”.

Consider `CCCCCCCCCCCCC/C=C/[C@@H](O)[C@@H](N)CO` [sphingosine], for which, in data set [2], the “membrane lysosphingolipid content, 0 hours of incubation” value was 105 ± 5 pmoles lysosphingolipid/mg pla; the “membrane lysosphingolipid content, 0.5 hours of incubation” value is 113 ± 15 pmoles lysosphingolipid/mg pla; the “membrane lysosphingolipid content, 1.0 hours of incubation” value is on record as 140 ± 15 pmoles lysosphingolipid/mg pla; the “membrane lysosphingolipid content, 2.0 hours of incubation” value is 165 ± 20 pmoles lysosphingolipid/mg pla. Moreover, the “membrane lysosphingolipid content, 3.0 hours of incubation” value in data set [2] was 175 ± 25 pmoles lysosphingolipid/mg pla.

Turning to `CCCCCCCCCCCCC/C=C/[C@@H](O)[C@@H](N)COP(=O)([O-])OCC[N+](C)(C)C` [lysosphingomyelin, sphingosyl phosphoryicholine], in data set [2], the “membrane lysosphingolipid content, 0 hours of incubation” value is on record as 5 ± 1 pmoles lysosphingolipid/mg pla; the “membrane lysosphingolipid content, 0.5 hours of incubation” value is reported as 65 ± 15 pmoles lysosphingolipid/mg pla; the “membrane lysosphingolipid content, 1.0 hours of incubation” value is on record as 110 ± 15 pmoles lysosphingolipid/mg pla; the “membrane lysosphingolipid content, 2.0 hours of incubation” value is reported as 120 ± 10 pmoles lysosphingolipid/mg pla. In data set [2], the “membrane lysosphingolipid content, 3.0 hours of incubation” value is on record as 145 ± 25 pmoles lysosphingolipid/mg pla. In data set [1] (125 nmoles ICV), the “convulsant behavior, compound alone” value is “displayed no convulsant behavior”. In addition, the “convulsant behavior, compound alone” value in data set [1] (150 nmoles ICV) was “displayed no convulsant behavior”. The effective dose in data set [1] (rat) was 125 nmol and 150 nmol. Moreover, the “sedation produced by the lysosphingolipid” value in data set [1] (Lysosphingomyelin 150 nmoles ICV) is recorded as “mild sedation”. In addition, the “behavioral or neurotoxic effects of the compound itself” value in data set [1] (doses as high as 125 nmoles per animal ICV) is “no behavioral or neurotoxic effects were observed”. Also, the “behavioral and histological changes caused by quisqualate” value in data set [1] (pretreated with 125 nmoles ICV, rat) is “absent”. Further, the “number of convulsions or spasms” value in data set [1] (pretreatment 125 nmoles ICV 30 minutes before quisqualate 225 nmoles, n=6) is on record as “significantly (p<01) attenuated”. Further, in data set [1] (pretreatment 150 nmoles ICV 30 minutes before quisqualate 225 nmoles, n=6), the “number of convulsions or spasms” value is “significantly (p<01) attenuated”. In data set [1] (quisqualate 225 nmoles and lysophingomyelin 150 nmoles ICV), the “time quisqualate-alone animals spent in teeth chattering, akinesia and mobilization compared with this group” value is reported as “significantly (p<.01) more time”.

Values taken from patent publication US6083920A, “Compositions for modulating intracellular inositol trisphosphate concentration” (priority 1996, dated 2000).
